Laboratory results taken from patent US4877893A, “Process for the preparation of 2-(O-alkyl)-2-thio-1,3,2-oxathiophospholanes” (priority 1987, dated 1989).

Assays:
Assay in all cases: Fungicidal effect on infected agar nutrient media, colony diameter
Format in all cases: cell-based
Penicillium cyclopium = settings: 7th day after treatment, untreated 26.5
Method: (§1) Agar nutrient media (Diameter 70 MM, thickness 10 mm) infected by Sclerotonia sclerotinia suspension are treated with 20 EC formulations prepared according to Example 27 and comprising 1, 10, 100 and 1000 ppm, respectively of the active ingredient of the Formula I. The fungicidal effect of the compositions is evaluated on the 3rd day after treatment by measuring the diameter of the Fungi colonies.
The series of measureents described in Example 35 is carried out except that the agar nutrient media are infected by a Penicillium cyclopium Fungi strain and the test is evaluated on the 7th day after treatment.

Sclerotinia sclerotinia = settings: 3rd day after treatment, untreated control 41.7
Method: as §1

Alternaria tenuis = settings: 5th day after treatment, untreated control 36.8
Method: as §1
The series of measurements according to Example 35 is carried out except that the agar nutrient media are infected by Alternaria Tenius and evaluation is accomplished on the 5th day after treatment.

| Structure (SMILES) | Diameter of colony (mm) (Penicillium cyclopium; 1 ppm) | Diameter of colony (mm) (Penicillium cyclopium; 10 ppm) | Diameter of colony (mm) (Penicillium cyclopium; 100 ppm) | Diameter of colony (mm) (Penicillium cyclopium; 1000 ppm) | Diameter of colony (mm) (Sclerotinia sclerotinia; 1 ppm) | Diameter of colony (mm) (Sclerotinia sclerotinia; 10 ppm) | Diameter of colony (mm) (Sclerotinia sclerotinia; 100 ppm) | Diameter of colony (mm) (Sclerotinia sclerotinia; 1000 ppm) | Diameter of colony (mm) (Alternaria tenuis; 1 ppm) | Diameter of colony (mm) (Alternaria tenuis; 10 ppm) | Diameter of colony (mm) (Alternaria tenuis; 100 ppm) | Diameter of colony (mm) (Alternaria tenuis; 1000 ppm) |
| --- | --- | --- | --- | --- | --- | --- | --- | --- | --- | --- | --- | --- |
| CC1COP(=S)(OCCCl)S1 (stereo not drawn) [Compound 7] | 25.4 | 16.7 | 8.8 | 0 | 38.1 | 31.2 | 0 | 0 | 34.7 | 25.5 | 5.9 | 0 |
| CC1COP(=S)(OCCBr)S1 (stereo not drawn) [Compound 8] | 20.0 | 18.3 | 7.9 | 0 | 37.6 | 29.9 | 1.0 | 0 | 30.1 | 26.1 | 6.4 | 0 |
| CC1COP(=S)(OCCI)S1 (stereo not drawn) [Compound 9, 2-(0-2'-iodoethyl)-2-thio-4-methyl-1,3,2-oxathiophospholane] | 23.2 | 15.8 | 5.7 | 0 | 39.2 | 27.6 | 3.9 | 0 | 30.6 | 24.6 | 8.9 | 0 |
| CC(CCl)OP1(=S)OCCS1 (stereo not drawn) [Compound 10, 2-(0-1'-methyl-2'-chloroethyl)-2-thio-1,3,2-oxathiophospholane] | 21.3 | 19.0 | 6.8 | 0 | 40.1 | 31.3 | 1.8 | 0 | 33.9 | 21.6 | 5.8 | 0 |
| CC(CBr)OP1(=S)OCCS1 (stereo not drawn) [Compound 11] | 24.1 | 17.5 | 8.3 | 0 | 34.6 | 30.6 | 2.8 | 0 | 35.9 | 24.1 | 4.6 | 0 |
| CC(CI)OP1(=S)OCCS1 (stereo not drawn) [Compound 12] | 25.8 | 16.1 | 4.7 | 0 | 35.9 | 27.4 | 3.7 | 0 | 34.5 | 22.0 | 4.8 | 0 |
| CC(Cl)COP1(=S)OCCS1 (stereo not drawn) [Compound 13, 2-(0-2'-methyl-2'-chloroethyl)-2-thio-1,3,2-oxathiophospholane] | 24.5 | 19.2 | 7.5 | 0 | 33.9 | 32.1 | 1.7 | 0 | 32.2 | 25.8 | 5.1 | 0 |
| CC(Br)COP1(=S)OCCS1 (stereo not drawn) [Compound 14] | 18.2 | 17.6 | 7.9 | 0 | 38.1 | 28.1 | 0 | 0 | 31.3 | 21.3 | 5.7 | 0 |
| CC(I)COP1(=S)OCCS1 (stereo not drawn) [Compound 15] | 19.1 | 15.5 | 5.8 | 0 | 34.3 | 30.3 | 1.4 | 0 | 35.9 | 21.1 | 5.5 | 0 |
| CC1OP(=S)(OCCCl)SC1C (stereo not drawn) [Compound 16, 2-(0-2'-chloroethyl)-2-thio-4,5-dimethyl-1,3,2-oxathiophospholane] | 23.2 | 18.1 | 6.6 | 0 | 39.4 | 27.6 | 1.7 | 0 | 34.4 | 22.0 | 6.3 | 0 |
